Data published in patent publication EP1488698A1, “Compositions for descreasing intracellular inositol trisphosphate concentration and uses thereof” (priority 1995, dated 1997).
Values joined by “and” are separate entries in the source; they are usually repeats but may differ in a detail not shown here. Equal values may be shown once.

Key:
male F344 rats = assay: Behavioral analysis after ICV infusion (quisqualate excitotoxicity model); type: in vivo; conditions: for effective dose (to prevent or reverse quisqualate effects): pilot testing, the higher doses appeared to be more reliable; for number of convulsions or spasms: pretreatment with Psychosine (125 nmoles) or Lysosphingomyelin (125 nmoles and 150 nmoles) ICV 30 minutes before quisqualate 225 nmoles, n = 6 per group, Fig. 8; for convulsant behavior, compound alone: psychosine at 125 nmoles, lysosphingomyelin at 125 nmoles and 150 nmoles, ICV without quisqualate; for behavioral and histological changes caused by quisqualate: rats pretreated with 125 nmoles of the lysosphingolipid; for BEHAVIORAL RESPONSE: 30 minutes prior to quisqualate
Protocol: (§1) The animals used in this experiment were male F344 rats (Charles River Breeding Laboratories). The animals were housed individually, exposed to a 12-hour light-dark cycle, and allowed free access to food and water. The animals weighed approximately 250 g at the beginning of each experiment and were weighed daily. In addition, the animals were habituated to handling before each experiment.
(§2) Before administering various compounds, the animals were anesthetized with sodium pentobarbital (50 mg/kg, i.p.) and positioned in a sterotaxic instrument. A 26 gauge cannula was inserted into the cerebral ventricle at the following co-ordinates: 1.0 mm posterior to bregma, 1.5 mm lateral to the midline, and 4.0 mm below the dorsal surface of the neocortex. Cannulas were capped and fixed in place with dental cement. One week after cannulation, 10 µl of each of the treatment drugs was infused, ICV (i.e. into the ventricals of the brain), via a micropump at a rate of 10 µl/min. For this procedure, the animals were lightly restrained and unanesthetized. Following administration of the compound, the infusion cannula remained in position for one minute, after which the permanent in situ cannula was capped.
(§3) The compounds administered were obtained from a commercial supplier (Sigma Chemical Co., St. Louis, MO) and dissolved in saline prior to injection. These compounds included quisqualate (injected at doses ranging from 100 nmole/10 µl to 1 µmole/10 µl), lysocerebroside, and lysophingomyelin (which were injected at doses of 25 nmoles/10 µl to 150 nmoles/10 µl).
Pilot studies identified several specific behavioral measures that could be used to indicate excessive activation of the metabotropic receptor (see Table 3). […] The experiments that follow were based on an analysis of these behaviors over a two hour period after administration of the compounds of the invention. Behavioral observation was carried out by two trained observers, who worked independently of one another and who were blind to the experimental groups. […] Frequency and duration means were computed by subtracting pre-infusion means from post-infusion means.
The experiment began one week after ICV cannulation. […] Following the baseline observation period, animals received the first of two ICV infusions (all infusions were of a 10 µl volume that was administered over a 1 minute period). For the first five groups listed above, this consisted of saline (10 µl/minute), for the following 3 groups the infusions were psychosine at 125 nmoles, lysosphingomyelin at 125 nmoles, or lysosphingomyelin at 150 nmoles, respectively. Thirty minutes later, all animals received the second infusion which, for the first five groups listed above, consisted of saline, quisqualate at 225 nmoles, psychosine at 125 nmoles, lysosphingomyelin at 125 nmoles, and lysosphingomyelin at 150 nmoles respectively. […] Following the second infusion animals were returned to their cages, and observed continuously over the subsequent 2 hours.

cortical neurons = assay: Calcium ion signalling (fura 2) in intact cortical neurons; type: cell-based, chick; conditions: neurons loaded to 150 ± 20 pmoles per mg protein; 10 µM glutamate agonist, 30 minutes
Protocol: Metabotropic receptor function was examined in intact neurons by assaying lysosphingolipid modulation of calcium ion signalling. Approximately 1 X 10^6 cortical neurons were cultured on rectangular L-polylysine-coated coverslips and loaded with lysocerebroside or lysosphingomyelin to a level of 150 ± 20 pmoles per mg protein. The neurons were returned to complete Ham's high glucose medium/DMEM (1:1, vol:vol) and infiltrated with 5 µM fura 2/AM (Molecular Probes, Eugene, OR). Fura 2 is a calcium chelator whose fluorescence absorbance shifts to shorter wavelength upon calcium ion binding is measurable in intact cells. A change in intraneuronal calcium ion concentration was monitored as a change in the fluorescence spectrum.
The neurons were exposed to 10 µM glutamate agonist (for example, ibotenate) for 30 minutes at 37°C. The coverslips were then transferred to quartz cuvettes in medium containing 250 µM sulfinpyrazone to prevent fura 2/AM diffusion. Fluorescence ratios were recorded in a Perkin-Elmer LS-5 Fluorescence Spectrometer thermostatted at 37°C at excitation wavelengths of 340 and 380 nm, and emission measurement at 500 nm. Calcium ion signalling in agonist-stimulated neurons was 3.0 ± 0.2 arbitrary units for ibotenate-exposed neurons.

hippocampal neurons = assay: Histological analysis of brain (cresyl violet) seven days after ICV infusion; type: in vivo, rats; conditions: pretreatment with psychosine 125 nmoles; quisqualate 225 nmoles ICV; Figs. 7A and 7B
Protocol: as §1, §2, §3
Seven days after the compounds were administered, animals were sacrificed by transcardial perfusion with neutralized, buffered 10% formalin-saline. Their brains were removed, post-fixed overnight in 10% formalin-saline, and sectioned along the coronal plane (into 50 µm thick sections) on a freezing microtome. The sections were stained with cresyl violet to determine the extent of cellular destruction. […]
Given that high concentrations of metabotropic receptors are located in the hippocampus, and that the hippocampus is particularly vulnerable to the effects of a variety of insults including ischemia and hypoxia, this region was examined for evidence of neuronal degeneration due to glutamate excitoxicity.

Row | SMILES | effective dose (to prevent or reverse quisqualate effects) (male F344 rats; ICV, rats) | sedation (male F344 rats; Lysosphingomyelin 150 nmoles ICV, rats) | behavioral or neurotoxic effects of the compounds (male F344 rats; doses as high as 125 nmoles per animal, ICV, rats) | number of convulsions or spasms (male F344 rats) | convulsant behavior, compound alone (male F344 rats) | duration of teeth chattering, akinesia and mobilization, compared with quisqualate alone (male F344 rats; quisqualate 225 nmoles and lysophingomyelin 150 nmoles ICV, Fig. 9) | behavioral and histological changes caused by quisqualate (male F344 rats; ICV) | agonist-elicited calcium signalling in lysosphingolipid-loaded neurons (cortical neurons) | BEHAVIORAL RESPONSE (male F344 rats; Psychosine 25 nmoles + Quisqualate 200 moles, ICV) | BEHAVIORAL RESPONSE (male F344 rats; Psychosine 50 nmoles + Quisqualate 200 moles, ICV) | BEHAVIORAL RESPONSE (male F344 rats; Psychosine 100 nmoles + Quisqualate 200 nmoles, ICV) | BEHAVIORAL RESPONSE (male F344 rats; Psychosine 100 nmoles + Quisqualate 250 nmoles, ICV) | BEHAVIORAL RESPONSE (male F344 rats; Psychosine 125 nmoles + Quisqualate 225 nmoles, ICV) | BEHAVIORAL RESPONSE (male F344 rats; Psychosine 150 nmoles + Quisqualate 250 nmoles, ICV) | BEHAVIORAL RESPONSE (male F344 rats; psychosine 125 moles + Quisqualate 200 moles, ICV) | neuronal loss (CA1 pyramidal neurons) caused by quisqualate (hippocampal neurons)
1 | CCCCCCCCCCCCC/C=C/[C@@H](O)[C@@H](N)COP(=O)([O-])OCC[N+](C)(C)C [lysosphingomyelin, sphingosyl phosphorylcholine] | 125 nmol and 150 nmol | mild sedation | no behavioral or neurotoxic effects were observed | significantly (p<01) attenuated | displayed no convulsant behavior | quisqualate alone spent significantly (p< .01) more time engaged in these behaviors | absent | no calcium signalling measurably over controls | – | – | – | – | – | – | – | –
2 | CCCCCCCCCCCCC/C=C/[C@@H](O)[C@@H](N)CO[C@@H]1O[C@H](CO)[C@H](O)[C@H](O)[C@H]1O [psychosine] | 125 nmol | – | – | significantly (p<01) attenuated | displayed no convulsant behavior | – | absent | no calcium signalling measurably over controls | Moderate convulsions, teeth chattering, akinesia and hyperactivity | Moderate convulsions, teeth chattering, akinesia and hyperactivity | Almost complete attenuation of Quisqualate response, some teeth chattering post-injection | Moderate convulsions, teeth chattering, akinesia. Quisqualate markedly reduced compared to typical Quisqualate response at this dose. | Complete attenuation of Quisqualate response | Almost complete attenuation of Quisqualate response | Complete attenuation of Quisqualate response | prevents the neuronal loss caused by quisqualate
